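Briefly, cells in 96-well plates were exposed to five compound concentrations for 48 h, and endpoints were estimated by linear interpolation. GI50 is the concentration that inhibits growth by half.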 Calls of active or inactive are those of the source. Rule as the data show it: active = GI50 up to about 1.1 µM and inactive = higher. Where a SMILES comes first, the peptide text is derived from it. The star is where a group is joined. Boc = CC(C)(C)OC(=O)*
Assays:
Assay in all cases: NCI-60 cell line screen, 48 h
[1] = test system: UO-31
[2] = test system: MOLT-4
[3] = test system: HCT-116
[4] = test system: SN12C
[5] = test system: T47D
[6] = test system: KM12
[7] = test system: OVCAR-5
[8] = test system: 786-0
[9] = test system: CAKI-1
[10] = test system: SF-268
[11] = test system: IGROV-1
[12] = test system: U-251
[13] = test system: LOX IMVI
[14] = test system: HOP-62
[15] = test system: A498
[16] = test system: SW-620
[17] = test system: SNB-19
[18] = test system: COLO 205
[19] = test system: SR

SMILES	GI50 [1]	GI50 [2]	GI50 [3]	GI50 [4]	GI50 [5]	GI50 [6]	GI50 [7]	GI50 [8]	GI50 [9]	GI50 [10]	GI50 [11]	GI50 [12]	GI50 [13]	GI50 [14]	GI50 [15]	GI50 [16]	GI50 [17]	GI50 [18]	GI50 [19]
CCC[C@H](N[S+]([O-])c1ccc(C)cc1)C(C(=O)OCC)=C(c1ccccc1)c1ccccc1 (some centres not stated)	14.8 µM (inactive)	16.2 µM (inactive)	14.1 µM (inactive)	19.8 µM (inactive)	16.8 µM (inactive)	18.6 µM (inactive)	14.5 µM (inactive)	18.1 µM (inactive)	13.3 µM (inactive)	30.1 µM (inactive)	25.1 µM (inactive)	16.2 µM (inactive)	18.1 µM (inactive)	19 µM (inactive)	19.7 µM (inactive)	57.4 µM (inactive)	44.3 µM (inactive)	22.2 µM (inactive)	–
O=C1C(Cl)=C(NCCCN2CCOCC2)C(=O)c2c(O)ccc(O)c21	1.64 µM (inactive)	1 µM (active)	1.59 µM (inactive)	2.01 µM (inactive)	4.89 µM (inactive)	1.85 µM (inactive)	1.71 µM (inactive)	2.29 µM (inactive)	–	2.84 µM (inactive)	1.9 µM (inactive)	2.19 µM (inactive)	1.8 µM (inactive)	1.96 µM (inactive)	10 µM (inactive)	1.95 µM (inactive)	1.66 µM (inactive)	–	2.58 µM (inactive)
C=CCC1(c2ccc(OC)cc2)C=CC(=O)CC1 (configuration not stated)	> 100 µM (inactive)	28.6 µM (inactive)	> 100 µM (inactive)	> 100 µM (inactive)	> 100 µM (inactive)	> 100 µM (inactive)	> 100 µM (inactive)	> 100 µM (inactive)	> 100 µM (inactive)	> 100 µM (inactive)	> 100 µM (inactive)	52.4 µM (inactive)	> 100 µM (inactive)	> 100 µM (inactive)	–	> 100 µM (inactive)	> 100 µM (inactive)	> 100 µM (inactive)	44.3 µM (inactive)
CCCn1c(C23CC4CC(CC(C4)C2)C3)nc2ccc(Cl)cc2c1=O	15.6 µM (inactive)	33.7 µM (inactive)	30.1 µM (inactive)	35.2 µM (inactive)	25.8 µM (inactive)	31.9 µM (inactive)	74.8 µM (inactive)	34.2 µM (inactive)	30 µM (inactive)	> 100 µM (inactive)	51.9 µM (inactive)	45.1 µM (inactive)	36.6 µM (inactive)	23.4 µM (inactive)	17.9 µM (inactive)	> 100 µM (inactive)	49 µM (inactive)	37.2 µM (inactive)	–
O=CN1CCN(C(=O)c2ccc(Cl)cc2)C1=S	–	19.2 µM (inactive)	18 µM (inactive)	14.7 µM (inactive)	12.8 µM (inactive)	12.7 µM (inactive)	17.4 µM (inactive)	6.79 µM (inactive)	14.1 µM (inactive)	19.2 µM (inactive)	14.2 µM (inactive)	14.4 µM (inactive)	11.7 µM (inactive)	19.1 µM (inactive)	14.8 µM (inactive)	18 µM (inactive)	15.6 µM (inactive)	20.7 µM (inactive)	–
COC(=O)C1=C(C(=O)OC)C2OC1C1C2C2(C)C(C)=C(C)C1(C)[S+]2[O-] (configuration not stated)	4.21 µM (inactive)	2.02 µM (inactive)	6.08 µM (inactive)	16.6 µM (inactive)	6.71 µM (inactive)	19 µM (inactive)	15.5 µM (inactive)	4.65 µM (inactive)	4.93 µM (inactive)	9.55 µM (inactive)	16.7 µM (inactive)	13.8 µM (inactive)	16.6 µM (inactive)	20.2 µM (inactive)	27.5 µM (inactive)	4.14 µM (inactive)	30.3 µM (inactive)	6.43 µM (inactive)	–
Oc1cc(-c2ccccc2)nc2c(S)cccc12	–	47.3 µM (inactive)	> 100 µM (inactive)	> 100 µM (inactive)	29 µM (inactive)	> 100 µM (inactive)	> 100 µM (inactive)	> 100 µM (inactive)	–	> 100 µM (inactive)	> 100 µM (inactive)	> 100 µM (inactive)	–	> 100 µM (inactive)	–	> 100 µM (inactive)	> 100 µM (inactive)	> 100 µM (inactive)	> 100 µM (inactive)
CC1(C)Cc2c(c3ccccc3c3nc4c(nc23)c2c(c3ccccc34)OC(C)(C)C2)O1	–	> 100 µM (inactive)	> 100 µM (inactive)	> 100 µM (inactive)	> 100 µM (inactive)	> 100 µM (inactive)	> 100 µM (inactive)	> 100 µM (inactive)	> 100 µM (inactive)	> 100 µM (inactive)	> 100 µM (inactive)	> 100 µM (inactive)	> 100 µM (inactive)	> 100 µM (inactive)	> 100 µM (inactive)	> 100 µM (inactive)	> 100 µM (inactive)	> 100 µM (inactive)	–
CC(C)(C)[Si](C)(C)OC1CCOC1(O)c1ccccn1 (configuration not stated)	> 100 µM (inactive)	57.3 µM (inactive)	> 100 µM (inactive)	> 100 µM (inactive)	> 100 µM (inactive)	> 100 µM (inactive)	> 100 µM (inactive)	> 100 µM (inactive)	> 100 µM (inactive)	> 100 µM (inactive)	> 100 µM (inactive)	39.6 µM (inactive)	> 100 µM (inactive)	> 100 µM (inactive)	> 100 µM (inactive)	> 100 µM (inactive)	> 100 µM (inactive)	> 100 µM (inactive)	–
CSc1ccc(NC(=O)CCl)cc1	2.23 µM (inactive)	3.4 µM (inactive)	3.03 µM (inactive)	6.82 µM (inactive)	> 10 µM (inactive)	> 10 µM (inactive)	3.33 µM (inactive)	6.38 µM (inactive)	2.97 µM (inactive)	> 10 µM (inactive)	4.73 µM (inactive)	5.19 µM (inactive)	5.15 µM (inactive)	3.52 µM (inactive)	–	8.32 µM (inactive)	4.86 µM (inactive)	3.02 µM (inactive)	2.7 µM (inactive)
COc1cccc(C2c3cc4c(cc3OC(N3CCCC3)C2C)OCO4)c1OC (configuration not stated)	2.27 µM (inactive)	2.77 µM (inactive)	1.64 µM (inactive)	3.02 µM (inactive)	2.47 µM (inactive)	3.08 µM (inactive)	3.67 µM (inactive)	3.89 µM (inactive)	0.561 µM (active)	2.89 µM (inactive)	2.78 µM (inactive)	–	1.96 µM (inactive)	8.17 µM (inactive)	–	1.65 µM (inactive)	1.58 µM (inactive)	3.46 µM (inactive)	3.03 µM (inactive)
CCC(=O)C(c1ccccc1)c1ccccn1 (configuration not stated)	> 100 µM (inactive)	–	> 100 µM (inactive)	> 100 µM (inactive)	> 100 µM (inactive)	> 100 µM (inactive)	> 100 µM (inactive)	> 100 µM (inactive)	> 100 µM (inactive)	> 100 µM (inactive)	> 100 µM (inactive)	> 100 µM (inactive)	> 100 µM (inactive)	> 100 µM (inactive)	> 100 µM (inactive)	> 100 µM (inactive)	> 100 µM (inactive)	> 100 µM (inactive)	–
C(#Cc1ccccc1)SC1=C(c2ccccc2)S/C(=C(\SC#Cc2ccccc2)c2ccccc2)S1	> 100 µM (inactive)	> 100 µM (inactive)	> 100 µM (inactive)	> 100 µM (inactive)	> 100 µM (inactive)	> 100 µM (inactive)	> 100 µM (inactive)	> 100 µM (inactive)	> 100 µM (inactive)	> 100 µM (inactive)	> 100 µM (inactive)	> 100 µM (inactive)	> 100 µM (inactive)	> 100 µM (inactive)	–	> 100 µM (inactive)	> 100 µM (inactive)	> 100 µM (inactive)	> 100 µM (inactive)
CC(NC(=O)C(NC(=O)OC(C)(C)C)C(C)C)C(=O)NCC(=O)O (stereo not drawn) (Boc-Val-Ala-Gly-OH; configuration not given here)	> 100 µM (inactive)	> 100 µM (inactive)	> 100 µM (inactive)	> 100 µM (inactive)	> 100 µM (inactive)	> 100 µM (inactive)	> 100 µM (inactive)	> 100 µM (inactive)	> 100 µM (inactive)	> 100 µM (inactive)	> 100 µM (inactive)	> 100 µM (inactive)	–	> 100 µM (inactive)	–	> 100 µM (inactive)	> 100 µM (inactive)	> 100 µM (inactive)	> 100 µM (inactive)
Cc1nc(C)c(N2CCN(Cc3ccccc3)CC2)c(O)n1	> 100 µM (inactive)	> 100 µM (inactive)	> 100 µM (inactive)	> 100 µM (inactive)	> 100 µM (inactive)	> 100 µM (inactive)	–	> 100 µM (inactive)	–	> 100 µM (inactive)	> 100 µM (inactive)	> 100 µM (inactive)	> 100 µM (inactive)	> 100 µM (inactive)	> 100 µM (inactive)	> 100 µM (inactive)	> 100 µM (inactive)	> 100 µM (inactive)	> 100 µM (inactive)
O=C(O)C1CCCN(CCc2c[nH]c3ccccc23)C1 (configuration not stated)	–	> 100 µM (inactive)	> 100 µM (inactive)	> 100 µM (inactive)	> 100 µM (inactive)	> 100 µM (inactive)	> 100 µM (inactive)	> 100 µM (inactive)	> 100 µM (inactive)	> 100 µM (inactive)	> 100 µM (inactive)	> 100 µM (inactive)	> 100 µM (inactive)	> 100 µM (inactive)	> 100 µM (inactive)	> 100 µM (inactive)	> 100 µM (inactive)	> 100 µM (inactive)	–

Reference: ChEMBL document CHEMBL1201862, “PubChem BioAssay data set” (2004)
